This is an account of results in publication PMC11490619, “Discovery of Trypanosoma brucei inhibitors enabled by a unified synthesis of diverse sulfonyl fluorides” (Communications Chemistry, 2024).

In experiment [1] the test system is T1, Trypanosoma brucei brucei bloodstream forms.
T1 construct: 427 single marker, bloodstream form
In words: microbe, parasite or virus in culture. Set-up: Resazurin viability of bloodstream form parasites, fluorescence 560/590 nm, dose-response, initial screen n = 1. Conditions: initial screen, n = 1, 0.5% DMSO. On the procedure:
Cell viability assays were carried out in 96 well plates with 200 µL of culture per well as described previously. For this study we used bloodstream forms (BSF) of Trypanosoma brucei brucei strain 427 single marker. Axenic cultures of parasites were maintained at the logarithmic phase of cell proliferation (density below 2 ×10^6 parasites/mL) by successive passages in HMI-11 media supplemented with 10% heat inactivated foetal calf serum and 2.5 mg/L geneticin (Ge418) at 37°C under an atmosphere of 5% CO2. Parasites were seeded at 5 ×10^3 cells/mL and incubated with drug for 66 hours. The plate included wells containing the positive control pentamidine (100 nM) and the negative control of 0.5% DMSO. After 66 hours, 10 µL of 1.1 mg/mL Resazurin sodium salt was added in PBS and incubated for a further 6 hours. Plates were then read on a plate reader using excitation/emission 560/590 nm. EC50 values and errors were calculated using a sigmoidal dose response fitting algorithm. The initial screen was performed at n = 1 with follow-up screen of hits n = 4 technical replicates. The set of diverse sulfonyl fluoride probes was screened against Trypanosoma brucei brucei bloodstream forms in 96-well plate format (final concentrations: 0.1–100 μM in 0.5% dimethyl sulfoxide (DMSO); n = 1) (Fig. 3b). […]

Experiment [2] deals with T2, lyso-phospholipase (D6XM23) (Trypanosoma brucei, UniProt D6XM23).
T2 construct: gene Tb08.11J15.160; native protein in parasite lysate, about 30 kDa
T2 sequence (D6XM23 entry or part of it): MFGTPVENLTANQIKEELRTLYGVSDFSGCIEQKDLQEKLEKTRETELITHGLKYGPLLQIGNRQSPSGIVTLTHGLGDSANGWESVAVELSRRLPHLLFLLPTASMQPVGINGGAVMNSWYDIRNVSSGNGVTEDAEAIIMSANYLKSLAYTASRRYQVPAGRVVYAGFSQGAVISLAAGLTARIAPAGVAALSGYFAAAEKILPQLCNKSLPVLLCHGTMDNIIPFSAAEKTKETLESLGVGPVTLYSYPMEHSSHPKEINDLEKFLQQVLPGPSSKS
The experiment is described as follows: C-1alk click biotin pulldown, LFQ LC-MS/MS. It counts as biochemical. Conditions: covalent; labelled compound; parasite lysate; 1.5 uM C-1alk, 1 h, 25 C.

Experiment [3] addresses T3, prolyl endo-/oligo-peptidase S9 (Q38AG2) (Trypanosoma brucei, UniProt Q38AG2).
T3 construct: gene Tb10.6k15.2520; native protein in parasite lysate
In words: C-1alk click biotin pulldown, LFQ LC-MS/MS. It counts as biochemical. As to conditions: covalent; labelled compound; parasite lysate; 1.5 uM C-1alk, 1 h, 25 C.

Experiment [4] addresses T4, T. brucei glycerol kinase (Q38DF0) (Trypanosoma brucei, UniProt Q38DF0).
T4 construct: gene Tb09.211.3570; native protein in parasite lysate
The experiment is described as follows: modified-peptide LC-MS/MS after click to cleavable biotin-azide. It counts as binding. As to conditions: covalent; labelled compound; parasite lysate; site S137, T138 or Y139.

T3 sequence (Q38AG2 entry or part of it, one chain of several): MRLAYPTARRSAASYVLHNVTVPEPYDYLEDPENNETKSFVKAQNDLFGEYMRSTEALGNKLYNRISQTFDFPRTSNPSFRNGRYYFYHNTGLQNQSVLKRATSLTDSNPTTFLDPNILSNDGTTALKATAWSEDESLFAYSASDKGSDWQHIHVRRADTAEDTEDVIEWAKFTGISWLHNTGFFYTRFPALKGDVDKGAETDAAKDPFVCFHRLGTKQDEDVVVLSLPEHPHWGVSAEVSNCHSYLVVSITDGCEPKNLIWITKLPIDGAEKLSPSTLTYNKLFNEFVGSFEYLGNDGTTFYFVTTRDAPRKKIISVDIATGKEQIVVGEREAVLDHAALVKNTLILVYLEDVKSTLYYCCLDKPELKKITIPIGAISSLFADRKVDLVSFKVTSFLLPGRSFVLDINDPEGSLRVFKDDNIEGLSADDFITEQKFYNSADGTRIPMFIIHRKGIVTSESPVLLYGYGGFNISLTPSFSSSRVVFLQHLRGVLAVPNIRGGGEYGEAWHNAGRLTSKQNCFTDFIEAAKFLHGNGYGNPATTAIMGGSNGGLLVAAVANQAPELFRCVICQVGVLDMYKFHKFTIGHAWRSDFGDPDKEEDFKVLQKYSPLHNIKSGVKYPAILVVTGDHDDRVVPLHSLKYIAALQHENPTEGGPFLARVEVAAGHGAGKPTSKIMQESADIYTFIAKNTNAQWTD
T4 sequence (Q38DF0 entry or part of it): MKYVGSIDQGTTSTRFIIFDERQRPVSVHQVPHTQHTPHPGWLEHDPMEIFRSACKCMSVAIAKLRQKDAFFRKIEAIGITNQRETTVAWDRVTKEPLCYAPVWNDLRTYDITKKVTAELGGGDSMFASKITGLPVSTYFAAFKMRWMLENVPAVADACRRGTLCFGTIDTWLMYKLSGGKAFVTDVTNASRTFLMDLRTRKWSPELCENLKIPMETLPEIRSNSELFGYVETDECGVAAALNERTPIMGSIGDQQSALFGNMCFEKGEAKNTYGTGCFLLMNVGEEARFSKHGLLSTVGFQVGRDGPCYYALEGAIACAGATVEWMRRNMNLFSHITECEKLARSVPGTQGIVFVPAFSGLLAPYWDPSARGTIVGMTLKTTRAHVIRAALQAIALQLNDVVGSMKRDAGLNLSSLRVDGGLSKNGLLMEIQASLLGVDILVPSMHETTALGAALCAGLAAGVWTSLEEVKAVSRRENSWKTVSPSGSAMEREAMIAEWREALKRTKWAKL

In general, EC50 refers to the concentration needed to bring the measured effect to its halfway point. Lower therefore signals an effect from little substance. For the molecule `CC(C)(C)OC(=O)N1CCCC1c1ccc(S(=O)(=O)F)cn1` (stereo not shown) [C-1], the response in experiment [1] was half-maximal at 330 nM (EC50).

As for `C#CCOC(=O)N1CCCC1c1ccc(S(=O)(=O)F)cn1` (stereo not shown) [C-1alk], the “C-1alk click biotin pulldown, LFQ LC-MS/MS” value in experiment [2] is “Lyso-phospholipase emerged as the sole common hit labelled by both C-1alk and FP-biotin”; in experiment [3], “prolyl endo-/oligo-peptidase S9 (Q38AG2), which had been previously enriched with our C-1alk probe”. In addition, in experiment [4], the “modified-peptide LC-MS/MS after click to cleavable biotin-azide” value is listed as “identify peptides matching the expected mass shift for T. brucei glycerol kinase (Q38DF0)”.
